Where two headings read alike, the source gives them in different places.
Columns and labels:
[1] = system: AsPC-1; assay: cells; set-up: ATPlite luminescence viability of PDAC cell lines, 11-dose single-agent curves, 4-parameter fit; conditions: Homo sapiens, ASPC1, 72 h, read-out: EC50 [nM]
Procedure, shortened: (§1)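 cells (1000 to 5000 per well) seeded 24 h before drug addition in a combination screen at 0.2% final DMSO. Controls were drug-free wells (negative) and 5 µM staurosporine (positive).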

[2] = system: BxPC-3; assay: cells; set-up: ATPlite luminescence viability of PDAC cell lines, 11-dose single-agent curves, 4-parameter fit; conditions: Homo sapiens, BXPC-3, 72 h, read-out: EC50 [nM]
Procedure, shortened: as §1

[3] = system: PaTu-8988-T; assay: cells; set-up: ATPlite luminescence viability of PDAC cell lines, 11-dose single-agent curves, 4-parameter fit; conditions: Homo sapiens, PaTu 8988t, 72 h, read-out: EC50 [nM]
Procedure, shortened: as §1

[4] = molecular target: T1, ATR (Homo sapiens, UniProt Q13535); assay: Kinobeads competition pulldown in AsPC-1 lysate; assay type: binding
T1 construct: endogenous in cells; host or cells: AsPC-1 lysate
Experimental: This was followed by incubation with Kinobeads ε (17.5 µl of settled beads) for 30 min at 4 °C to enrich kinases. […] Enriched proteins were reduced with 50 mM DTT in 8 M urea, 40 mM Tris-HCl, pH 7.4 for 30 min at room temperature, and alkylated with 55 mM chloroacetamide. After reducing the urea concentration to 1–2 M, proteins were digested with trypsin at 37 °C for 16 h. Subsequently, eluted peptides were desalted using SepPak tC18 µElution plates (Waters), freeze-dried by vacuum centrifugation, and stored at −20 °C.
For LC-MS/MS, dried peptides were reconstituted in 0.1% formic acid and analyzed on a Dionex Ultimate3000 nano HPLC (Thermo Scientific) coupled to an Orbitrap Fusion Tribrid mass spectrometer (Thermo Scientific), which was run in data-dependent mode. Peptides were first delivered to a trap column (100 µm × 2 cm, packed in-house with Reprosil-Gold C18 ODS-3 5 µm resin, Dr. Maisch, Ammerbuch) and subsequently washed with solvent A0 (0.1% formic acid in HPLC grade water) at 5 µl/min for 10 min. […] For MS2, up to 12 peptide precursors were isolated (isolation width of 1.2 Th) and subjected to HCD fragmentation using 30% normalized collision energy. […] The duration of dynamic exclusion was set to 30 s.
Oxidized methionine and N-terminal acetylation were set as variable modification, and cysteine carbamidomethylation was set as fixed modification. Label-free quantification (LFQ) and match-between-runs were enabled. All searches were performed with 1% PSM and protein FDR.
Proteins were filtered by potential contaminants, reversed hits and proteins identified only by site. Residual binding of proteins was calculated from LFQ intensities as the ratio between drug doses and vehicle. […] Only kinases quantified with at least 4 unique peptides in the vehicle experiment were considered. Potential targets were further curated through manual inspection of dose-dependent reduction in MS/MS and unique peptide counts.

[5] = system: SIK2; conditions: cited from earlier work
[6] = system: FLT3; conditions: cited from earlier work
[7] = molecular target: CAMK2D; conditions: cited from earlier work
[8] = system: PRKD3; conditions: cited from earlier work
[9] = system: MARK4; conditions: cited from earlier work
[10] = system: MARK3; conditions: cited from earlier work
[11] = molecular target: AURKA; conditions: cited from earlier work
[12] = system: Q6ZSR9; conditions: cited from earlier work
[13] = system: PAK4; conditions: cited from earlier work
[14] = system: PKN2; conditions: cited from earlier work
[15] = molecular target: BMP2K; conditions: cited from earlier work
[16] = system: PKN1; conditions: cited from earlier work
[17] = SIK2, 5 cell line mix lysate, Kinobeads ε, ref Reinecke et al. (2023)
[18] = FLT3, 5 cell line mix lysate, Kinobeads ε, ref Reinecke et al. (2023)
[19] = 5 cell line mix lysate, Kinobeads ε, ref Reinecke et al. (2023), read-out: KDapp
[20] = 5 cell line mix lysate, Kinobeads ε, ref Reinecke et al. (2023)
[21] = PRKD3, 5 cell line mix lysate, Kinobeads ε, ref Reinecke et al. (2023)
[22] = MARK4, 5 cell line mix lysate, Kinobeads ε, ref Reinecke et al. (2023)
[23] = MARK3, 5 cell line mix lysate, Kinobeads ε, ref Reinecke et al. (2023)
[24] = Q6ZSR9, 5 cell line mix lysate, Kinobeads ε, ref Reinecke et al. (2023)
[25] = PAK4, 5 cell line mix lysate, Kinobeads ε, ref Reinecke et al. (2023)
[26] = PKN2, 5 cell line mix lysate, Kinobeads ε, ref Reinecke et al. (2023)
[27] = PKN1, 5 cell line mix lysate, Kinobeads ε, ref Reinecke et al. (2023)
[28] = 4 cell line mix lysate, Kinobeads y, ref Klaeger et al. (2017)

T1 sequence (Q13535 whole entry): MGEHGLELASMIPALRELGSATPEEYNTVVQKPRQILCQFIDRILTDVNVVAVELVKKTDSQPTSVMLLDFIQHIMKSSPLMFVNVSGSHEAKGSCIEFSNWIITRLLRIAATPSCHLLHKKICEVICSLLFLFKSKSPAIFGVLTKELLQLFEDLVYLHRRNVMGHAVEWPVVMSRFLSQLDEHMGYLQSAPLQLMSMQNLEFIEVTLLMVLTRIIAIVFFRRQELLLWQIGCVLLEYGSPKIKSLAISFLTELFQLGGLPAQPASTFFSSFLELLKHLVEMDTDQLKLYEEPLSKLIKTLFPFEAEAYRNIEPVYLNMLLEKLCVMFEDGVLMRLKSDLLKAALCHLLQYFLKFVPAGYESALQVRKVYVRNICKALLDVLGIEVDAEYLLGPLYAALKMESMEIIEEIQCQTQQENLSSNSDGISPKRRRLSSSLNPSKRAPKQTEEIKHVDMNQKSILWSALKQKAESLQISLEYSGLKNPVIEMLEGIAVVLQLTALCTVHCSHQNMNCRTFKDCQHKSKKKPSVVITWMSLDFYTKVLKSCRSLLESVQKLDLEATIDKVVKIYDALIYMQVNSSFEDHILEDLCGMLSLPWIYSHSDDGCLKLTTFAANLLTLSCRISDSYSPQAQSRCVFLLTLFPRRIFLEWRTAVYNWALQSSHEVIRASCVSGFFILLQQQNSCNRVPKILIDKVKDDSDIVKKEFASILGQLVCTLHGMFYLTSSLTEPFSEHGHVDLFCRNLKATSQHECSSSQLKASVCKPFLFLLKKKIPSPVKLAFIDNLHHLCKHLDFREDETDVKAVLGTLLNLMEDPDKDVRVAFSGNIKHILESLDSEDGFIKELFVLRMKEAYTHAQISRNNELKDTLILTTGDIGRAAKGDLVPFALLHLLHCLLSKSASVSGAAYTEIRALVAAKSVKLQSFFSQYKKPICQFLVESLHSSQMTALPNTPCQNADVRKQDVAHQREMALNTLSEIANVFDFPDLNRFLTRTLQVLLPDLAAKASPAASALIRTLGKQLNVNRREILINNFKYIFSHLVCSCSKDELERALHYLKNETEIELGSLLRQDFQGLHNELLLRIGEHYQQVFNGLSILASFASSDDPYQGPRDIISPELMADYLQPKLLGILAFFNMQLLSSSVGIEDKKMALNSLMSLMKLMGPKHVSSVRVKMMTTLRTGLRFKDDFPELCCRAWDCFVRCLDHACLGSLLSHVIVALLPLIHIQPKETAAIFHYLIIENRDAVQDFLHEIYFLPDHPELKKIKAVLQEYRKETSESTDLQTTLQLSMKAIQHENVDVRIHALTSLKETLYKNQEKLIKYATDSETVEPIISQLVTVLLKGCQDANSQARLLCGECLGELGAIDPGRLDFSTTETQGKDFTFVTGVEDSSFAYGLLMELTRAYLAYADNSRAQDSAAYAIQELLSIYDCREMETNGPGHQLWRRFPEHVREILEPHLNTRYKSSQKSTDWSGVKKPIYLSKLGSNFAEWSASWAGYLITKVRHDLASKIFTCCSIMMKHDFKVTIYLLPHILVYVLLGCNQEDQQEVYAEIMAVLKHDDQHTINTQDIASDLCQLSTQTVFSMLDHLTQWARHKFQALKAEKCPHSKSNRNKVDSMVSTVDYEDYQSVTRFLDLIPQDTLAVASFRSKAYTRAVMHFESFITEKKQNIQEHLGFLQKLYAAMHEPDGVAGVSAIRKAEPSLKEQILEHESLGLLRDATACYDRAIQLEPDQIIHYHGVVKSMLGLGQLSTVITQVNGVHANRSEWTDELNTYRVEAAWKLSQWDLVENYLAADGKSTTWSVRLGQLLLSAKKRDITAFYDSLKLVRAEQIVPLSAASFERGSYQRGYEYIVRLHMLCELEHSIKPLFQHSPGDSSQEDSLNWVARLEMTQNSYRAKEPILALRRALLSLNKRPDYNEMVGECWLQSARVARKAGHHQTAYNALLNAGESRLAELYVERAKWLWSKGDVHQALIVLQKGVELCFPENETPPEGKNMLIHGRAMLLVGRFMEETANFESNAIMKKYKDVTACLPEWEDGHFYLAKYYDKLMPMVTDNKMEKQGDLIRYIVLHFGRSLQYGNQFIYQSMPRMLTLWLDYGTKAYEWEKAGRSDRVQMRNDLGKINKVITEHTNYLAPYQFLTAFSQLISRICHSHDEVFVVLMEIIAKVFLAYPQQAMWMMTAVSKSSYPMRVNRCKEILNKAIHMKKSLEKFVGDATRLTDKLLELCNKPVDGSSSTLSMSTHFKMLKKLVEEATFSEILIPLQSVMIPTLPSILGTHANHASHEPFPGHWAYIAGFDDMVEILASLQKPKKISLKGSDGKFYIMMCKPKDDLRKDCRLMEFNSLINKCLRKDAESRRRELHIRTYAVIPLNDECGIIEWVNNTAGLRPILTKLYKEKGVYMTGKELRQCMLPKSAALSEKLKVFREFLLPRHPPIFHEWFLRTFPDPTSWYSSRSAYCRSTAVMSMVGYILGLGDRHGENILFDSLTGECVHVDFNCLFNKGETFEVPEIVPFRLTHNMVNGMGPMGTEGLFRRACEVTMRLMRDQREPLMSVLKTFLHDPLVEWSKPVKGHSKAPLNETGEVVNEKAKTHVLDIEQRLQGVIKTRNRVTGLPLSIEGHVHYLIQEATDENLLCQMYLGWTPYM
T1 sequence (Q8WXE1 whole entry partner): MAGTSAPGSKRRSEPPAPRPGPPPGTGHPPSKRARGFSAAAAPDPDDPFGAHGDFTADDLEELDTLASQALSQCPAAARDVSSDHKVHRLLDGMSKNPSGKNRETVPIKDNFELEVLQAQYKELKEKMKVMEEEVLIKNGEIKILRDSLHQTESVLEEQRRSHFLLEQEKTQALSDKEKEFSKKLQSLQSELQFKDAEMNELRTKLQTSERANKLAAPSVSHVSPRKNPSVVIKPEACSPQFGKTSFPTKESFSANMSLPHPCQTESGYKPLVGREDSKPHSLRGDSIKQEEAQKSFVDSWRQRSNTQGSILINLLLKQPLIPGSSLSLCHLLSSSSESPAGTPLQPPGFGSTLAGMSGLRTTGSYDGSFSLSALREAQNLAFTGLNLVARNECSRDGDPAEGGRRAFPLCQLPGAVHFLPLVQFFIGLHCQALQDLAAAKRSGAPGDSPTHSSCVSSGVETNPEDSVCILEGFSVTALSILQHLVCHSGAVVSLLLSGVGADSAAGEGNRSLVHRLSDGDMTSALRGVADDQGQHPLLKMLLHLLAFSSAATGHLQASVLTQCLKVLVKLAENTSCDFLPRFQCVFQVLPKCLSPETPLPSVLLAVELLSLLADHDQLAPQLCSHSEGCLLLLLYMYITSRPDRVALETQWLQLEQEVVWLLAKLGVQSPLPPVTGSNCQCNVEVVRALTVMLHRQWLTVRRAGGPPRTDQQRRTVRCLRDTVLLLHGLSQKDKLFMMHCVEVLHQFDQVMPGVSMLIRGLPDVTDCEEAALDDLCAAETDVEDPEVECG

`CCN1CCN(Cc2ccc(Nc3ncc(F)c(-c4cc(F)c5nc(C)n(C(C)C)c5c4)n3)nc2)CC1` [Abemaciclib] showed an EC50 [1] greater than 10000 nM, an EC50 [2] of 337 nM and an EC50 [3] of 2850 nM.

In the case of `CNCc1ccc(-c2cc(-c3nc(-c4ccc(S(=O)(=O)C(C)C)cc4)cnc3N)on2)cc1` [Berzosertib], the “affinity to ATR over off-targets” value ([4]; Berzosertib: vs. all except ACVR2, Elimusertib: vs. PIK3C2A, Ceralasertib: vs. CDK7) is reported as greater than 10 fold.

In the case of `COc1cc(N2CCC(N3CCN(C)CC3)CC2)ccc1Nc1ncc(Cl)c(Nc2ccccc2P(C)(C)=O)n1` [Brigatinib], the EC50 [5, 17] is listed as 46.5 nM, the pKDapp [5, 17] is listed as 7.62 and the Kd ([5]; SIK2, 5 cell line mix lysate, Kinobeads ε, ref Reinecke et al. (2023), read-out: KDapp) is listed as 24.1 nM. For the same molecule, the EC50 [6, 18] was 142 nM, the pKDapp [6, 18] was 7.12 and the Kd ([6]; FLT3, 5 cell line mix lysate, Kinobeads ε, ref Reinecke et al. (2023), read-out: KDapp) was 76.3 nM. The Kd [7, 19] was 86.4 nM, the EC50 [7, 20] was 424 nM and the pKDapp [7, 20] was 7.06. For the same molecule, the EC50 [8, 21] was 259 nM, the pKDapp [8, 21] was 6.72 and the Kd ([8]; PRKD3, 5 cell line mix lysate, Kinobeads ε, ref Reinecke et al. (2023), read-out: KDapp) was 192 nM. For the same molecule, the EC50 [9, 22] was 232 nM, the pKDapp [9, 22] was 6.71 and the Kd ([9]; MARK4, 5 cell line mix lysate, Kinobeads ε, ref Reinecke et al. (2023), read-out: KDapp) was 193 nM. The EC50 [10, 23] was 250 nM, the pKDapp [10, 23] was 6.71 and the Kd ([10]; MARK3, 5 cell line mix lysate, Kinobeads ε, ref Reinecke et al. (2023), read-out: KDapp) was 193 nM. For the same molecule, the Kd [11, 19] was 224 nM, the EC50 [11, 20] was 634 nM and the pKDapp [11, 20] was 6.65. For the same molecule, the EC50 [12, 24] was 296 nM, the pKDapp [12, 24] was 6.65 and the Kd ([12]; Q6ZSR9, 5 cell line mix lysate, Kinobeads ε, ref Reinecke et al. (2023), read-out: KDapp) was 225 nM. For the same molecule, the EC50 [13, 25] was 1190 nM, the pKDapp [13, 25] was 6.14 and the Kd ([13]; PAK4, 5 cell line mix lysate, Kinobeads ε, ref Reinecke et al. (2023), read-out: KDapp) was 718 nM. The EC50 [14, 26] was 1040 nM, the pKDapp [14, 26] was 6.07 and the Kd ([14]; PKN2, 5 cell line mix lysate, Kinobeads ε, ref Reinecke et al. (2023), read-out: KDapp) was 852 nM. For the same molecule, the Kd [15, 19] was 999 nM, the EC50 [15, 20] was 1510 nM and the pKDapp [15, 20] was 6.00. The EC50 [16, 27] was 2270 nM, the pKDapp [16, 27] was 5.70 and the Kd ([16]; PKN1, 5 cell line mix lysate, Kinobeads ε, ref Reinecke et al. (2023), read-out: KDapp) was 1990 nM. It also gave an EC50 [1] of 272 nM.

For `C[C@]12O[C@H](C[C@]1(O)CO)n1c3ccccc3c3c4c(c5c6ccccc6n2c5c31)CNC4=O` [Lestaurtinib], the EC50 ([5]; SIK2, 4 cell line mix lysate, Kinobeads y, ref Klaeger et al. (2017)) is given as […], the EC50 ([6]; FLT3, 4 cell line mix lysate, Kinobeads y, ref Klaeger et al. (2017)) is given as […] and the EC50 [7, 28] is given as […]. The EC50 ([8]; PRKD3, 4 cell line mix lysate, Kinobeads y, ref Klaeger et al. (2017)) was […], the EC50 ([9]; MARK4, 4 cell line mix lysate, Kinobeads y, ref Klaeger et al. (2017)) was […] and the EC50 ([10]; MARK3, 4 cell line mix lysate, Kinobeads y, ref Klaeger et al. (2017)) was […]. The EC50 [11, 28] was […], the EC50 ([12]; Q6ZSR9, 4 cell line mix lysate, Kinobeads y, ref Klaeger et al. (2017)) was 105 nM and the EC50 ([13]; PAK4, 4 cell line mix lysate, Kinobeads y, ref Klaeger et al. (2017)) was […]. The EC50 ([14]; PKN2, 4 cell line mix lysate, Kinobeads y, ref Klaeger et al. (2017)) was […], the EC50 [15, 28] was 323 nM and the EC50 ([16]; PKN1, 4 cell line mix lysate, Kinobeads y, ref Klaeger et al. (2017)) was […]. It also gave an EC50 [2] of 432 nM and an EC50 [3] of 407 nM.

Work on `Nc1nn2cc(F)cnc2c1C(=O)Nc1cncc(F)c1N1CCC(C(=O)N2CCN(C3COC3)CC2)CC1` [Gartisertib] yielded a Kd ([4]; AsPC-1 lysate, read-out: KDapp) of 318 nM.

— article PMC11876601 (Molecular Systems Biology, 2025)
